The term inhibition denotes the drop in the measured response relative to a control, in per cent.

The structures appear in SMILES notation. Like-named read-outs stand apart in the source and are kept apart here.

This assay has as its system C. elegans. Briefly: microbe, parasite or virus in culture. The note with it: Caenorhabditis elegans.
Setting [1] is: 0 h, read-out: Percentage of motility inhibition 0 h, Table S2, C. elegans SS assay, 110 μM, 0 h, averages of 4 data points.
Setting [2] is: 24 h, read-out: Percentage of motility inhibition 24 h, Table S2, C. elegans SS assay, 110 μM, 24 h, averages of 4 data points.
Setting [3] is: 0 h, read-out: Percentage of motility inhibition 0 h.
The mark [4] stands for this setting: 24 h, read-out: Percentage of motility inhibition 24 h.

Turning to `COc1cc2c(cc1OC)-c1c(OC)c(OC)cc3c1[C@H](C2)N(C)CC3` [Glauci ne], the inhibition at 110 µM came to 0% under setting [1] and 11% under setting [2].

As to `O=C(O)c1ccccc1O` [Salicylic acid], the inhibition at 110 µM amounted to 12% under setting [1] and 8% under setting [2]. Consider `Cc1cc(-n2c(=O)[nH]c(=O)n(C)c2=O)ccc1Oc1ccc(SC(F)(F)F)cc1` [Toltrazuril], for which the inhibition at 110 µM reads like this: under setting [1], 31%; under setting [2], 2%.

For the molecule `CC(C)=CCc1cc(-c2coc3cc(O)ccc3c2=O)ccc1O` [Neobavaisoflavone], the inhibition at 110 µM runs as follows: under setting [1], 10%; under setting [2], 21%.

Turning to `CC(C)=CCC[C@H](C(=O)O)[C@H]1CC[C@]2(C)C3=C(CC[C@@]12C)[C@@]1(C)CCC(=O)C(C)(C)[C@H]1CC3` [β-Elemonic acid], the inhibition at 110 µM under setting [1] amounted to 23% and the inhibition at 110 µM under setting [2] worked out at 28%. Take `C=C(NC(=O)C(=C)NC(=O)c1csc(C2=N[C@@H]3c4csc(n4)[C@H]4NC(=O)c5csc(n5)[C@H]([C@](C)(O)[C@@H](C)O)NC(=O)[C@H]5CSC(=N5)/C(=C/C)NC(=O)[C@H]([C@@H](C)O)NC(=O)c5csc(n5)[C@]3(CC2)NC(=O)[C@H](C)NC(=O)C(=C)NC(=O)[C@H](C)NC(=O)[C@H]([C@@H](C)CC)N[C@@H]2C=Cc3c([C@H](C)O)cc(nc3[C@H]2O)C(=O)O[C@@H]4C)n1)C(N)=O` [Thiostrepton]: the inhibition at 110 µM is, setting by setting: under setting [1], 11%; under setting [2], 31%.

For the molecule `CC1=CC(=O)C(C(C)C)CC1` (stereo not drawn) [Piperitone], the inhibition at 110 µM reads like this: under setting [1], 10%; under setting [2], 11%.

With `COC(=O)[C@@]12OC[C@]34[C@H]([C@@H](O)[C@@H]1O)[C@@]1(C)CC(=O)C(O)=C(C)[C@@H]1C[C@H]3OC(=O)[C@H](OC(=O)CC(C)C)[C@@H]24` [Bruceine A], the inhibition at 110 µM under setting [3] is 24% and the inhibition at 110 µM under setting [4] turned out to be 49%. In the case of `COP(=S)(OC)Oc1c(Cl)cc(C)cc1Cl` [Tolclofos‐methyl], the inhibition at 110 µM under setting [1] amounted to 35% and the inhibition at 110 µM under setting [2] amounted to 20%.

As to `C[C@@H]1CC[C@]2(C(=O)O)CC[C@]3(C)C(=CC[C@@H]4[C@@]5(C)CC[C@H](O)C(C)(C)[C@@H]5CC[C@]43C)[C@@H]2[C@]1(C)O` [Pomolic acid], the inhibition at 110 µM reads like this: under setting [1], 29%; under setting [2], 67%. In the case of `O=C(O)c1ccncc1` [Isonicotinic acid], the inhibition at 110 µM came to 0% under setting [1] and 0% under setting [2]. For the molecule `Nc1nc(NC2CC2)c2ncn([C@H]3C=C[C@@H](CO)C3)c2n1` [Abacavir], the inhibition at 110 µM reads like this: under setting [1], 3%; under setting [2], 2%. On to `COc1ccc2c3c1O[C@H]1C[C@@H](O)CC[C@]31CCN(C)C2` [Lycoramine], for which the inhibition at 110 µM under setting [1] came to 0% and the inhibition at 110 µM under setting [2] was found to be 0%. In the case of `COc1ccc(-c2coc3cc(O)ccc3c2=O)cc1` [Formononetin], the inhibition at 110 µM under setting [1] was found to be 6% and the inhibition at 110 µM under setting [2] is 31%. The matching figures for `O=C(CCCCc1ccc2c(c1)OCO2)N1CCCCC1` [Tetrahydropiperine]: 0% and 0%. With `O=c1c2ccccc2[se]n1-c1ccccc1` [Ebselen], the inhibition at 110 µM turned out to be 13% under setting [1] and 12% under setting [2]. The matching figures for `CCCCN(CCCC)CC(O)c1cc(Cl)cc2c1-c1ccc(Cl)cc1/C2=C/c1ccc(Cl)cc1` (stereo not drawn) [Lumefantrine]: 0% and 0%.

`CC1(C)C[C@@H](O)[C@]2(C)CC[C@]3(C)C(=CC[C@@H]4[C@@]5(C)CC[C@H](O)[C@](C)(CO)[C@@H]5CC[C@]43C)[C@@H]2C1` [Soyasapogenol B]: the inhibition at 110 µM by setting is: under setting [1], 9%; under setting [2], 39%. Regarding `C=C1C[C@]2(O)O[C@@]3(CC2=C(C)C)[C@@H](C)CC[C@@H]13` [Isocurcumenol], the inhibition at 110 µM under setting [1] was 5% and the inhibition at 110 µM under setting [2] is 24%. Consider `O=C(O)CCCCCCCC(=O)O` [Azelaic acid], for which the inhibition at 110 µM by setting is: under setting [1], 0%; under setting [2], 0%. For `C=C[C@]1(C)C[C@@H](OC(=O)CS[C@@H]2C[C@H]3CC[C@@H](C2)N3C)[C@]2(C)[C@H](C)CC[C@]3(CCC(=O)[C@H]32)[C@@H](C)[C@@H]1O` [Retapamulin], the inhibition at 110 µM reads like this: under setting [1], 27%; under setting [2], 9%. As for `COc1cnc(NS(=O)(=O)c2ccc(N)cc2)nc1` [Sulfameter], the inhibition at 110 µM runs as follows: under setting [1], 25%; under setting [2], 8%.

As for `C/C=C(\C)C(=O)O[C@H]1C[C@@H](OC(C)=O)[C@@]2(C(=O)OC)CO[C@H]3[C@@H](O)[C@@](C)([C@]45O[C@@]4(C)[C@H]4C[C@@H]5O[C@@H]5OC=C[C@@]54O)[C@H]4[C@]1(CO[C@]4(O)C(=O)OC)[C@@H]32` [Azadirachtin], the inhibition at 110 µM under setting [1] was 24% and the inhibition at 110 µM under setting [2] came out at 4%. For the molecule `O=c1c(O)c(-c2ccc(O)c(O)c2)oc2cc(O)ccc12` [Fisetin], the inhibition at 110 µM was 0% under setting [1] and 2% under setting [2]. `CCN(CC)CCNc1ccc(CO)c2sc3ccccc3c(=O)c12` [Hycanthone]: the inhibition at 110 µM reads like this: under setting [1], 31%; under setting [2], 26%.

Regarding `NC(=O)c1ncn([C@@H]2O[C@H](CO)[C@@H](O)[C@H]2O)c1O` [Mizoribine], the inhibition at 110 µM by setting is: under setting [1], 28%; under setting [2], 29%. On to `C=C1C[C@@]23CC[C@H]4[C@@](C)(CCC[C@@]4(C)C(=O)O[C@@H]4O[C@H](CO)[C@@H](O)[C@H](O)[C@H]4O)[C@@H]2CC[C@]1(O[C@@H]1O[C@H](CO)[C@@H](O)[C@H](O)[C@H]1O[C@@H]1O[C@H](CO)[C@@H](O)[C@H](O)[C@H]1O)C3` [Stevioside], for which the inhibition at 110 µM runs as follows: under setting [1], 15%; under setting [2], 0%. `CC/C=C\C/C=C\C/C=C\C/C=C\C/C=C\CCCC(=O)O` [Eicosapentaenoic Acid]: the inhibition at 110 µM by setting is: under setting [1], 0%; under setting [2], 4%.

Regarding `C=C1C(=O)O[C@@H]2C[C@@]3(C)[C@@H](O)C[C@@H](O)C(=C)[C@@H]3C[C@H]12` [Granilin], the inhibition at 110 µM under setting [1] was 4% and the inhibition at 110 µM under setting [2] was 13%. Turning to `O=c1c(O)c(-c2ccccc2)oc2ccccc12` [Flavonol], the inhibition at 110 µM reads like this: under setting [1], 2%; under setting [2], 10%. Regarding `C/C=C1/C[C@@H](C)[C@@](C)(O)C(=O)OCC2=CCN3CC[C@@H](OC1=O)[C@@H]23` [Senecionine], the inhibition at 110 µM was 0% under setting [3] and 24% under setting [4]. For the molecule `CC1(C)CC[C@]2(C(=O)O)CC[C@]3(C)C(=CC[C@@H]4[C@@]5(C)CCC(=O)C(C)(C)[C@@H]5CC[C@]43C)[C@@H]2C1` [Oleanonic acid], the inhibition at 110 µM under setting [3] came out at 15%.

Consider `C/C(=C\C(=O)CC(C)C(=O)O)[C@H]1CC(=O)[C@@]2(C)C3=C(C(=O)C[C@]12C)[C@@]1(C)CC[C@H](O)C(C)(C)[C@@H]1C[C@@H]3O` (stereo partly drawn) [Ganoderenic acid B], for which the inhibition at 110 µM stood at 0% under setting [1] and 42% under setting [2]. The corresponding values for `CC(C)(C)[C@H]1CC[C@H](CC2=C(O)C(=O)c3ccccc3C2=O)CC1` [Buparvaquone] are 6% and 12%. On to `O=c1c(O)c(-c2cc(O)c(O)c(O)c2)oc2cc(O)cc(O)c12` [Myricetin], for which the inhibition at 110 µM reads like this: under setting [3], 30%; under setting [4], 7%.

For the molecule `C[C@@H]1O[C@@H](O[C@H]2[C@H](Oc3cc(O)c4c(c3)O[C@H](c3ccc(O)cc3)CC4=O)O[C@H](CO)[C@@H](O)[C@@H]2O)[C@H](O)[C@H](O)[C@H]1O` [Naringin], the inhibition at 110 µM runs as follows: under setting [1], 0%; under setting [2], 3%. The corresponding values for `C=C1CC[C@@H]2[C@](C)(CO)[C@H](O)CC[C@@]2(C)[C@@H]1CCC1=CCOC1=O` [14-Deoxyandrographolide] are 1% and 28%. In the case of `O=C1Nc2ccccc2C1=O` [Isatin], the inhibition at 110 µM runs as follows: under setting [1], 25%; under setting [2], 3%.

With `CCCCC(C#N)(Cn1cncn1)c1ccc(Cl)cc1` (stereo not drawn) [Myclobutanil], the inhibition at 110 µM came to 30% under setting [1] and 12% under setting [2]. For the molecule `COc1cc(-c2oc3cc(O)cc(O)c3c(=O)c2O[C@@H]2O[C@H](CO[C@@H]3O[C@@H](C)[C@H](O)[C@@H](O)[C@H]3O)[C@@H](O)[C@H](O)[C@H]2O)ccc1O` [Narcissin], the inhibition at 110 µM is, setting by setting: under setting [1], 42%; under setting [2], 25%.

For `CO[C@H]1/C=C/O[C@@]2(C)Oc3c(C)c(O)c4c(O)c(c(/C=N/N5CCN(C)CC5)c(O)c4c3C2=O)NC(=O)/C(C)=C\C=C\[C@H](C)[C@H](O)[C@@H](C)[C@@H](O)[C@@H](C)[C@H](OC(C)=O)[C@@H]1C` [Rifampicin], the inhibition at 110 µM reads like this: under setting [1], 13%; under setting [2], 4%.

As to `O=C(C[C@H]1NCCC[C@@H]1O)Cn1cnc2ccccc2c1=O` [Febrifugine], the inhibition at 110 µM is, setting by setting: under setting [1], 0%; under setting [2], 0%. For `C[C@@]12C[C@@]3(O)O[C@@H](O1)[C@]1(COC(=O)c4ccc(O)cc4)[C@@H]3C[C@]12O[C@@H]1O[C@H](COC(=O)c2ccccc2)[C@@H](O)[C@H](O)[C@H]1O` [Mudanpioside C], the inhibition at 110 µM under setting [1] is 23% and the inhibition at 110 µM under setting [2] turned out to be 41%. Turning to `COc1cccc(N2CCN(C3=Nc4c(F)cccc4[C@H](CC(=O)O)N3c3cc(C(F)(F)F)ccc3OC)CC2)c1` [Letermovir], the inhibition at 110 µM amounted to 24% under setting [1] and 0% under setting [2]. With `CC(C)OC(=O)[C@H](C)N[P@](=O)(CO[C@H](C)Cn1cnc2c(N)ncnc21)Oc1ccccc1` [GS‐7340], the inhibition at 110 µM by setting is: under setting [3], 11%; under setting [4], 1%. Consider `CCCc1cc(C(N)=S)ccn1` [Prothionamide], for which the inhibition at 110 µM under setting [1] is 44% and the inhibition at 110 µM under setting [2] was 7%. For the molecule `c1ccc2[nH]ccc2c1` [Indole], the inhibition at 110 µM under setting [3] is 13% and the inhibition at 110 µM under setting [4] turned out to be 9%.

For the origin of these results see paper PMC11855827, “High-Throughput Screening of Five Compound Libraries for Anthelmintic Activity and Toxicity Leads to the Discovery of Two Flavonoid Compounds” (International Journal of Molecular Sciences, 2025).
